Data reported in paper PMC4739506 (Nature chemistry, 2013).

Test system: P. falciparum 3D7 parasites (schizonts)
Experiment: YnMyr treatment of schizonts: morphology and life cycle progression
Type: cell-based
Conditions: up to 50 μM, 5 h

With `C#CCCCCCCCCCCCC(=O)O` [YnMyr, tetradec-13-ynoic acid] the “changes in morphology or life cycle progression” value was “no changes were observed in morphology or life cycle progression”.
